The source of these data is patent US8598365B2, “Herbicides” (Syngenta Limited, priority 2007, dated 2013).

SMILES strings stand for the structures.

Holding throughout (assay type): in vivo
For test [1], the system named is Avena fatua (AVEFA). Description: Example B post-emergence herbicidal activity. The conditions noted are these: 312 h, rate 250 g/ha, evaluated after 13 days, read-out: Post-emergence activity AVEFA (100=total damage to plant; 0=no damage to plant). The gist of the method: (§1)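 Damage was rated 13 days after treatment on a 0 (no damage) to 100 (total damage) scale. Pots of soil-sown plants had been sprayed one day after sowing for pre-emergence or at 8 days for post-emergence. Spray: acetone/water (50:50), 0.5% Tween 20.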

For test [2], the system named is Setaria faberi (SETFA). The experiment in a line: Example B post-emergence herbicidal activity. The conditions noted are these: 312 h, rate 250 g/ha, evaluated after 13 days, read-out: Post-emergence activity SETFA (100=total damage to plant; 0=no damage to plant). The gist of the method: as §1
Test [3] concerns Amaranthus retoflexus (AMARE). The experiment in a line: Example B post-emergence herbicidal activity. The conditions noted are these: Amaranthus retroflexus, 312 h, rate 250 g/ha, evaluated after 13 days, read-out: Post-emergence activity AMARE (100=total damage to plant; 0=no damage to plant). In outline:
as §1

Test [4] deals with Echinochloa crus-galli (ECHCG). The experiment in a line: Example B post-emergence herbicidal activity. The conditions noted are these: 312 h, rate 250 g/ha, evaluated after 13 days, read-out: Post-emergence activity ECHCG (100=total damage to plant; 0=no damage to plant). The gist of the method:
as §1

Test [5] concerns Alopecurus myosuroides (ALOMY). The experiment in a line: Example B post-emergence herbicidal activity. The conditions noted are these: 312 h, rate 250 g/ha, evaluated after 13 days, read-out: Post-emergence activity ALOMY (100=total damage to plant; 0=no damage to plant). The gist of the method:
as §1

The subject of test [6] is Avena fatua (AVEFA). Description: Example B pre-emergence herbicidal activity. The conditions noted are these: 312 h, rate 250 g/ha, evaluated after 13 days, read-out: Pre-Emergence Activity AVEFA (100=total damage to plant; 0=no damage to plant). The gist of the method: as §1
Test [7] has as its system Setaria faberi (SETFA). The experiment in a line: Example B pre-emergence herbicidal activity. The conditions noted are these: 312 h, rate 250 g/ha, evaluated after 13 days, read-out: Pre-Emergence Activity SETFA (100=total damage to plant; 0=no damage to plant). The gist of the method:
as §1

Test [8] has as its system Amaranthus retoflexus (AMARE). Description: Example B pre-emergence herbicidal activity. The conditions noted are these: Amaranthus retroflexus, 312 h, rate 250 g/ha, evaluated after 13 days, read-out: Pre-Emergence Activity AMARE (100=total damage to plant; 0=no damage to plant). In outline:
as §1

The subject of test [9] is Echinochloa crus-galli (ECHCG). Description: Example B pre-emergence herbicidal activity. The conditions noted are these: 312 h, rate 250 g/ha, evaluated after 13 days, read-out: Pre-Emergence Activity ECHCG (100=total damage to plant; 0=no damage to plant). The gist of the method:
as §1

In test [10] the test system is Alopecurus myosuroides (ALOMY). The experiment in a line: Example B pre-emergence herbicidal activity. The conditions noted are these: 312 h, rate 250 g/ha, evaluated after 13 days, read-out: Pre-Emergence Activity ALOMY (100=total damage to plant; 0=no damage to plant). In outline:
as §1

As to `CCc1sc(-c2ccc(Br)cc2)nc1C1C(=O)[C@@H]2CC[C@@H](C2)C1=O` (stereo partly drawn) [Compound T28], the pest or weed control at 250 g/ha in the test with Avena fatua (AVEFA) [1] amounted to 100%; with Setaria faberi (SETFA) [2] it was 100%; in [3], 0%; in [4], 100%; in [5] it was 100%; in the test with Avena fatua (AVEFA) [6] it was 90%. The pest or weed control at 250 g/ha in the test with Setaria faberi (SETFA) [7] was found to be 100%; in test [8] it was 0%; in [9], 100%; in [10], 80%.
As for `CCc1sc(-c2c(F)cc(Cl)cc2F)nc1C1C(=O)[C@@H]2CC[C@@H](C2)C1=O` (stereo partly drawn) [Compound T29], the pest or weed control at 250 g/ha stood at 100% in the test on Avena fatua (AVEFA) [1]; 100% in the test with Setaria faberi (SETFA) [2]; 0% in test [3]; 100% in [4]; 100% in test [5]; 90% with Avena fatua (AVEFA) [6]. Also, the pest or weed control at 250 g/ha in the test on Setaria faberi (SETFA) [7] is 100%; in test [8], 20%; in test [9] it was 100%; in test [10] it was 90%.
As to `Cc1sc(-c2ccc(I)cc2)nc1C1C(=O)[C@@H]2CC[C@@H](C2)C1=O` (stereo partly drawn) [Compound T30], the pest or weed control at 250 g/ha in the test on Avena fatua (AVEFA) [1] is 100%; in the test on Setaria faberi (SETFA) [2] it was 100%; in [3], 0%; in test [4] it was 100%; in [5] it was 100%; in the test on Avena fatua (AVEFA) [6] it was 100%. The pest or weed control at 250 g/ha was found to be 100% with Setaria faberi (SETFA) [7], 20% in test [8], 100% in test [9] and 90% in [10].
For the compound `Cc1sc(-c2ccc(Br)cc2F)nc1C1C(=O)[C@@H]2CC[C@@H](C2)C1=O` (stereo partly drawn) [Compound T32], the pest or weed control at 250 g/ha was found to be 90% in the test on Avena fatua (AVEFA) [1]; 100% in the test with Setaria faberi (SETFA) [2]; 0% in test [3]; 100% in test [4]; 100% in [5]; 80% in the test with Avena fatua (AVEFA) [6]. The pest or weed control at 250 g/ha in the test with Setaria faberi (SETFA) [7] is 100%; in test [8], 0%; in [9], 100%; in test [10] it was 90%.
Consider `CCc1sc(-c2ccc(Br)cc2F)nc1C1C(=O)[C@@H]2CC[C@@H](C2)C1=O` (stereo partly drawn) [Compound T33], for which the pest or weed control at 250 g/ha stood at 100% in the test with Avena fatua (AVEFA) [1]; 100% with Setaria faberi (SETFA) [2]; 0% in test [3]; 100% in [4]; 100% in test [5]; 50% in the test with Avena fatua (AVEFA) [6]. The pest or weed control at 250 g/ha in the test with Setaria faberi (SETFA) [7] came out at 100%; in test [8], 0%; in [9], 100%; in test [10], 90%.
For the compound `Cc1sc(-c2ccc(Cl)s2)nc1C1C(=O)[C@@H]2CC[C@@H](C2)C1=O` (stereo partly drawn) [Compound T34], the pest or weed control at 250 g/ha in the test on Avena fatua (AVEFA) [1] is 0%; with Setaria faberi (SETFA) [2], 90%; in test [3], 0%; in test [4], 80%; in [5], 70%; with Avena fatua (AVEFA) [6], 0%. The pest or weed control at 250 g/ha worked out at 20% in the test on Setaria faberi (SETFA) [7], 0% in test [8], 20% in test [9] and 20% in [10].
As for `Cc1sc(-c2ccc(Br)cn2)nc1C1C(=O)[C@@H]2CC[C@@H](C2)C1=O` (stereo partly drawn) [Compound T35], the pest or weed control at 250 g/ha with Avena fatua (AVEFA) [1] was found to be 80%; in the test with Setaria faberi (SETFA) [2], 100%; in test [3], 0%; in test [4], 100%; in test [5] it was 100%; with Avena fatua (AVEFA) [6], 0%. Also, the pest or weed control at 250 g/ha is 100% in the test on Setaria faberi (SETFA) [7], 0% in test [8], 90% in test [9] and 30% in test [10].
Regarding `CCc1sc(-c2ccc(Cl)s2)nc1C1C(=O)[C@@H]2CC[C@@H](C2)C1=O` (stereo partly drawn) [Compound T36], the pest or weed control at 250 g/ha with Avena fatua (AVEFA) [1] turned out to be 20%; with Setaria faberi (SETFA) [2] it was 100%; in [3], 0%; in test [4] it was 100%; in [5] it was 90%; with Avena fatua (AVEFA) [6] it was 20%. Moreover, the pest or weed control at 250 g/ha amounted to 70% in the test with Setaria faberi (SETFA) [7], 0% in test [8], 60% in test [9] and 60% in [10].
Take `Cc1cc(Br)ccc1-c1nc(C2C(=O)[C@@H]3CC[C@@H](C3)C2=O)c(C)s1` (stereo partly drawn) [Compound T37]: the pest or weed control at 250 g/ha in the test on Avena fatua (AVEFA) [1] is 90%; in the test on Setaria faberi (SETFA) [2], 100%; in test [3] it was 0%; in [4], 100%; in test [5], 100%; in the test with Avena fatua (AVEFA) [6], 30%. For the same compound, the pest or weed control at 250 g/ha in the test with Setaria faberi (SETFA) [7] came to 90%; in test [8] it was 0%; in [9], 60%; in [10], 30%.
For `CCc1sc(-c2ccc(Br)cc2C)nc1C1C(=O)[C@@H]2CC[C@@H](C2)C1=O` (stereo partly drawn) [Compound T38], the pest or weed control at 250 g/ha in the test on Avena fatua (AVEFA) [1] turned out to be 100%; in the test on Setaria faberi (SETFA) [2], 100%; in test [3] it was 0%; in test [4] it was 100%; in test [5], 100%; in the test with Avena fatua (AVEFA) [6], 50%. In addition, the pest or weed control at 250 g/ha amounted to 100% in the test with Setaria faberi (SETFA) [7], 0% in test [8], 70% in test [9] and 60% in [10].
On to `CCc1sc(-c2ccc(Br)cn2)nc1C1C(=O)[C@@H]2CC[C@@H](C2)C1=O` (stereo partly drawn) [Compound T39], for which the pest or weed control at 250 g/ha is 100% with Avena fatua (AVEFA) [1]; 100% with Setaria faberi (SETFA) [2]; 0% in test [3]; 100% in test [4]; 100% in [5]; 0% with Avena fatua (AVEFA) [6]. In addition, the pest or weed control at 250 g/ha came to 90% in the test with Setaria faberi (SETFA) [7], 0% in [8], 100% in test [9] and 90% in [10].
`O=C1C(c2nc(-c3ccc(Br)cc3)sc2CC(F)(F)F)C(=O)[C@H]2CC[C@@H]1C2` (stereo partly drawn) [Compound T40]: the pest or weed control at 250 g/ha in the test with Avena fatua (AVEFA) [1] is 100%; in the test on Setaria faberi (SETFA) [2], 100%; in test [3], 0%; in test [4], 100%; in [5], 100%; in the test on Avena fatua (AVEFA) [6], 100%. Besides, the pest or weed control at 250 g/ha was 100% with Setaria faberi (SETFA) [7], 0% in [8], 100% in test [9] and 100% in test [10].
